Experimental data as given in US7601708B2, “Bile-acid derived compounds for providing sustained systemic concentrations of drugs after oral administration” (XenoPort, Inc., priority 2000, dated 2009).

Assays:
[1] = Pharmacokinetics after oral administration to rats; details: single oral dose of gabapentin 25 mg/kg
[2] = Secretion in bile after oral administration to bile duct-cannulated rats; assay type: in vivo, Sprague-Dawley rats; details: single oral dose of (8) 85.25 mg/kg
Description: Sustained release of gabapentin from a prodrug that is subject to enterohepatic recirculation requires that a proportion of the intact prodrug be absorbed after oral administration and subsequently secreted into the bile intact. The potential for enterohepatic recirculation of intact (8) was examined in rats with indwelling bile duct fistulae. […] Bile was collected continuously in aliquots over 24 hours. Plasma and bile samples were frozen at −80° C. until analyzed. […] Concentrations of intact (8) in bile were similarly determined by LC/MS/MS. Bile (20 μL) was diluted 1:1000 with methanol and injected directly onto the HPLC system. Concentrations of (8) in bile reached a maximum at ˜6 hours post-dosing and were sustained up to 24 hours.

[3] = male, Sprague-Dawley, rat, in vivo, po, 85.25 mg/kg
[4] = target: T1, IBAT (Homo sapiens, UniProt Q12908); experiment: In vitro uptake by CHO cells transfected with IBAT evaluated by LC-MS/MS; assay type: cell-based; details: 0.06 to 1000 μM, 10 min; uptake by untransfected CHO K1 cells subtracted
T1 construct: expressed in transfected cells; host or cells: CHO
Description: (§1) Active transport of (8) by the bile acid transport system was evaluated in vitro by incubation of (8) or glycocholate (control substrate) with untransfected CHO K1 cells or CHO cells transfected with either IBAT or LBAT. Cells (10^5 cells/mL) were incubated in 96 well plates with varying concentrations (0.06 to 1000 μM) of (8) or glycocholate for 10 min. Cells were then washed with Hank's Balanced Salt Solution (HBSS) and lysed and extracted by addition of 100 μL of water followed by sonication. Concentrations of (8) or glycocholate in cell extracts were determined by direct injection onto an API 2000 LC/MS/MS equipped with an Agilent 1100 binary pump and autosampler. Separation was achieved using a Keystone BDS Hypersil 2×50 mm column heated to 45° C. during the analysis. The mobile phases were: 0.1% formic acid in water (A) and 0.1% formic acid in acetonitrile (B). The gradient condition was: 5% B for 1 min, increasing to 90% B in 0.2 min, maintained for 2.8 min and returning to 5% B for 2 min. A TurboIonSpray source was used on the API 2000. The analysis was performed in the positive ion mode and MRM transitions of 466/412 and 562/154 were used in the analysis of glycocholate and (8), respectively. Ten microliters of the cell extracts were injected. Peaks were integrated using Analyst quantitation software. […]

[5] = target: T2, Carboxypeptidase A (Bos taurus, UniProt P00730); experiment: Stability towards purified carboxypeptidase A; assay type: in vitro ADME; details: Carboxypeptidase A (10 units/mL); substrate 2.0 μM; no cofactors; 37° C.
T2 sequence (P00730 111-419): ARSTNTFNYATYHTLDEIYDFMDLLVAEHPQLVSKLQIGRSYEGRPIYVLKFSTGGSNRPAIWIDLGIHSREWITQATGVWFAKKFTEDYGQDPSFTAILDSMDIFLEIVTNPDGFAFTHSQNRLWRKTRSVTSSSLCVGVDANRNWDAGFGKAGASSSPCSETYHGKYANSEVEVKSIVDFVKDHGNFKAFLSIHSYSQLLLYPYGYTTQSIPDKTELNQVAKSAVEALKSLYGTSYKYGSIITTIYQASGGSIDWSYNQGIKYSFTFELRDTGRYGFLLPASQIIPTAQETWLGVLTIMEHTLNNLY

[6] = target: T3, LBAT (Homo sapiens, UniProt Q14973); experiment: In vitro uptake by CHO cells transfected with LBAT evaluated by LC-MS/MS; assay type: cell-based; details: 0.06 to 1000 μM, 10 min; uptake by untransfected CHO K1 cells subtracted
T3 construct: expressed in transfected cells; host or cells: CHO
Description: as §1

[7] = target: T4, LBAT (Homo sapiens, UniProt Q14973); experiment: Electrogenic transport in Xenopus oocytes expressing LBAT; assay type: cell-based; details: maximal induced current relative to glycodeoxycholate (100 μM)
T4 sequence (Q14973 1-349): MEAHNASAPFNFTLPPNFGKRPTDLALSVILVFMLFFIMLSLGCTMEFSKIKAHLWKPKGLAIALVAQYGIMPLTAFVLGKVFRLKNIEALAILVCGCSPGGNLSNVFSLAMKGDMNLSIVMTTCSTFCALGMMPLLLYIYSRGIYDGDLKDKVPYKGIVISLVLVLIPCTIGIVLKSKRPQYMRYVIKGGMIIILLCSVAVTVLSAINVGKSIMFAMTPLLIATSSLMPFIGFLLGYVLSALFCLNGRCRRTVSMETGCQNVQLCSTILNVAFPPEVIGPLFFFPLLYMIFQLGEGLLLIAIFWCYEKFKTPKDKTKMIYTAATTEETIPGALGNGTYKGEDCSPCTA
Description: (b) Analysis of Electrogenic Transport in Xenopus Oocytes RNA Preparation: Human IBAT and LBAT Transporter cDNAs were subcloned into a modified pGEM plasmid that contains [NT] untranslated sequences from the Xenopus β-actin gene. These sequences increase RNA stability and protein expression. […] Xenopus oocyte isolation. Xenopus laevis frogs were anesthetized by immersion in Tricaine ([…] in deionized water) for 15 min. […] The oocytes were washed 6 times, and the buffer changed to frog ringer solution containing CaCl2 (1.8 mM). Remaining follicle cells were removed if necessary. Cells were incubated at 16° C., and each oocyte injected with […] solution. Electrophysiology measurements. […] Bath flow was controlled by an automated perfusion system (ALA Scientific Instruments, solenoid valves). For transporter pharmacology, oocytes were clamped at -60 to -90 mV, and continuous current measurements acquired using PowerLab Software and an ADInstruments digitizer. Current signals were lowpass filtered at 20 Hz and acquired at 4-8 Hz. All bath and drug-containing solutions were frog ringers solution containing CaCl2. […] The difference current (baseline subtracted from peak current during drug application) reflected the net movement of charge resulting from electrogenic transport and was directly proportional to tranport rate.

T1 sequence (Q12908 whole entry): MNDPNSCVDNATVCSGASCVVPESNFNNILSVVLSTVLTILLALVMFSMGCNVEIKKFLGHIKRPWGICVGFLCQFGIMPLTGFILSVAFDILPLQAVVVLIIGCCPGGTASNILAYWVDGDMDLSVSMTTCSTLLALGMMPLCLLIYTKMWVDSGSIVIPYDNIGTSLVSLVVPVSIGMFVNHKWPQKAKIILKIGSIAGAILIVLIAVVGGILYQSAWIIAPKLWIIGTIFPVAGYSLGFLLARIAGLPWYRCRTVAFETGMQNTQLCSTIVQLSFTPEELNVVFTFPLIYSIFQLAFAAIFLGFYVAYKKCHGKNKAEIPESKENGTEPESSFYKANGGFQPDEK

NCC1(CC(=O)O)CCCCC1 [gabapentin, 1-aminomethyl-1-cyclohexaneacetic acid]
terminal half-life of gabapentin in plasma [1]: 2.4 ± 0.5 h

CC(CCC(=O)NCC1(CC(=O)O)CCCCC1)C1CCC2C3C(O)CC4CC(O)CCC4(C)C3CC(O)C12C (stereo not shown) [Compound (8)]
time of maximum concentration of (8) in bile [2]: ~6 h | time to which concentrations of (8) in bile were sustained [2]: 24 h | gabapentin in plasma of bile duct-cannulated rats ([2]; analyte gabapentin): no gabapentin was detected | time of maximum concentration of intact (8) in plasma [3]: ~8 h | time to which concentrations of intact (8) in plasma were sustained [3]: 24 h | Active uptake into IBAT transfected cells [4]: Active uptake | Percent of Gabapentin Released in 60 min [5]: Stable | Active uptake into LBAT transfected cells [6]: Active uptake

CC(CCC(=O)NCC(=O)NCC1(CC(=O)O)CCCCC1)C1CCC2C3C(O)CC4CC(O)CCC4(C)C3CC(O)C12C (stereo not shown) [(13), Cholyl-Gly-Gabapentin]
% Max. (GDC) [7]: 38%
